Patent US12004506B2, “Pharmaceutical composition comprising a cyclic peptide of formula X1-[sequence]-X2 and use for extracorporeal lung treatment” (priority 2013, dated 2024)
Like-named read-outs stand apart in the source and are kept apart here. Bridges are numbered along the chain shown (N, C = ends). Where no end group is shown, it is not given here.

How the values were obtained:
[1] = system: sodium ion current in A549 cells (deglycosylated cell surface); experiment: Patch clamp assay, whole cell mode, on A549 cells deglycosylated with PNGase F; type: cell-based, human; conditions: 240 nM peptide, Eh -100 mV; for Whole cell current, pre-treatment with PNGase F: A549
Description: In whole cell mode experiments as described above, A549 cells were incubated with “PNGase enzyme F” (Peptide-N^4-(N-acetyl-β-D-glucosaminyl)asparagine amidase F) 100 units for 1-5 minutes immediately prior to the patch clamp measurements and glass cover slips with the cultured cells were rinsed with external solution before being transferred to the chamber of the 1 mL bath.
The results of the deglycosylation experiments using the patch clamp assay in whole cell mode are presented in Table IV, wherein the effect of deglycosylation of A549 cells on activation of sodium ion current by peptides of SEQ ID NO:1 to SEQ ID NO:7 is indicated. Whole cell currents were recorded at Eh=−100 mV.

[2] = system: sodium ion current in A549 cell line; conditions: for activity on sodium ion current (in words): A549, patch clamp
Description: Experiments were carried out on the human epithelial cell line A549 (ATTAC Nr. CCL-185) in passages 80-90. Cells were grown in Dulbecco's modified Eagle's medium/nutrient mixture F12 Ham, supplemented with 10% fetal bovine serum and containing 1% penicillin-streptomycin. All culture media were purchased from Sigma-Aldrich GmbH (St. Louis, MO).
Currents were recorded with the patch clamp method in the whole-cell mode. Glass cover slips with the cultured cells were transferred to a chamber of 1 ml capacity, mounted on the stage of an inverted microscope (Zeiss, Axiovert 100). The chamber contained 1 ml of the bath solution of the following composition (in mM): 145 NaCl, 2.7 KCl, 1.8 CaCl2), 2 MgCl2, 5.5 glucose and 10 HEPES, adjusted to pH 7.4 with 1 M NaOH solution. Micropipettes were pulled from thin-walled borosilicate glass capillaries (World Precision Instruments, Inc., FL, USA) with a Flaming Brown micropipette puller (P87, Sutter Instruments, CA, USA) and polished on a microforge (Narishige, Tokyo, Japan) to obtain electrode resistances ranging from 2.0 to 3.5 MΩ. […] Chemicals for pipette and bathing solutions were supplied by Sigma-Aldrich (Vienna, Austria). Electrophysiological measurements were carried out with an Axopatch 200B patch clamp amplifier (Axon Instruments, CA, USA). Capacity transients were cancelled, and series resistance was compensated. Whole cell currents were filtered at 5 kHz and sampled at 10 KHz. Data acquisition and storage were processed directly to a PC equipped with pCLAMP 10.0 software (Axon Instruments, CA, USA).
After GΩ-seal formation, the equilibration period of 5 min was followed by control recordings at holding potentials (Eh) between −100 and +100 mV in 20 mV increments for 1 min at each Eh. […] The wash-in phase lasted about 1 min. […] Concentration-response curves and EC50-values were fitted and estimated for currents recorded at Eh of −100 mV with SigmaPlot 9.0. […] Subsequent addition of 10 mM tetraethylammonium chloride (TEA) indicated whether any observed increases in the current were due to potassium current. […]

[3] = system: non-ischemic pig donor lung; experiment: Ex vivo lung perfusion (EVLP) of non-ischemic pig donor lungs, inhalative application; conditions: pulmonary application
Description: Brain death pigs were turned into dorsal position, and a longitudinal sternotomy was performed. The pericardium and both pleural cavities were opened. […] An inflow catheter was placed in the pulmonary artery through a purse-string on the right ventricular outflow tract.
The lungs (non-ischemic) were then preserved with an ante grade flush of cold isotonic preservation solution (50 ml per kg body weigh of pig, containing potassium ions, sodium ions, magnesium ions, calcium ions, chloride ions, dextran, glucose, buffering ions) through the inflow catheter. Incision of the left auricular appendix provides outflow. The lungs were ventilated during this period with 50% oxygen, and iced slush were placed in both pleural cavities and mediastinum.
The explanation technique was en bloc harvesting with heart and esophagus according to the following steps: • a) Dissection of soft tissue bridges to the thoracic cavity on both sides of the trachea. • b) Transsection of both pulmonal ligaments (very deep, difficult exposure), then of the VCI, the lower thoracic descendent aorta and the esophagus, respectively. • c) Blunt separation from remaining mediastinal adhesions. • d) Complete inflation of the donor lung prior of tracheal closure with a stapler.
After explantation, the lungs were wrapped in gauze, placed in an insulated ice bag filled with low-potassium dextran extracellular solution, and stored at 4° C. for 18 to 24 hours. A temperature probe was submerged in the container, which will be placed in a refrigerator.
For ex-vivo lung conditioning, the EVLP technique ([…]) was used. In the EVLP technique, donor lungs are placed into a circuit composed of a pump, ventilator and filters. EVLP technique, the temperature may increased up to 37 °C. In the EVLP, a ventilator is used to deliver oxygen to the lungs. The pump is used to perfuse the lungs with an extracellular solution containing human albumin and nutrition. During EVLP, the lung function can be evaluated regularly on key indicators. […]

[4] = system: sodium ion current in A549 cells (deglycosylated cell surface); experiment: Patch clamp assay, whole cell mode, on A549 cells deglycosylated with PNGase F; type: cell-based, human; conditions: 240 nM peptide, Eh -100 mV

C[C@@H]1NC(=O)CNC(=O)[C@H](CCC(=O)O)NC(=O)[C@@H]2CCCN2C(=O)[C@H]([C@@H](C)O)NC(=O)[C@H](CCC(=O)O)NC(=O)[C@H](CCCNC(=N)N)NC(=O)[C@H](CCC(N)=O)NC(=O)CNC(=O)[C@@H]2CCCN2C(=O)[C@H](CO)NC(=O)[C@@H](N)CCCCNC(=O)CC[C@@H](C(=O)O)NC(=O)[C@H](Cc2ccc(O)cc2)NC(=O)[C@H](Cc2c[nH]c3ccccc23)NC(=O)[C@@H]2CCCN2C(=O)[C@H](CCCCN)NC(=O)[C@H](C)NC(=O)[C@H](CCC(=O)O)NC1=O [SEQ ID NO: 2]
Whole cell current, pre-treatment with PNGase F [1]: 21.3 pA (n = 3)

C[C@@H]1NC(=O)CNC(=O)[C@H](CCC(=O)O)NC(=O)[C@@H]2CCCN2C(=O)[C@H]([C@@H](C)O)NC(=O)[C@H](CCC(=O)O)NC(=O)[C@H](CCCNC(=N)N)NC(=O)[C@H](CCC(N)=O)NC(=O)CNC(=O)[C@@H](N)CCCCNC(=O)CNC(=O)[C@H](Cc2ccc(O)cc2)NC(=O)[C@H](Cc2c[nH]c3ccccc23)NC(=O)[C@@H]2CCCN2C(=O)[C@H](CCCCN)NC(=O)[C@H](C)NC(=O)[C@H](CCC(=O)O)NC1=O [SEQ ID NO: 3]
Whole cell current, pre-treatment with PNGase F [1]: 20.6 pA (n = 3)

C[C@@H]1NC(=O)CNC(=O)[C@H](CCC(=O)O)NC(=O)[C@@H]2CCCN2C(=O)[C@H]([C@@H](C)O)NC(=O)[C@H](CCC(=O)O)NC(=O)[C@H](CCCNC(=N)N)NC(=O)[C@H](CCC(N)=O)NC(=O)CNC(=O)[C@@H](N)CCCNC(=O)CNC(=O)[C@H](Cc2ccc(O)cc2)NC(=O)[C@H](Cc2c[nH]c3ccccc23)NC(=O)[C@@H]2CCCN2C(=O)[C@H](CCCCN)NC(=O)[C@H](C)NC(=O)[C@H](CCC(=O)O)NC1=O [SEQ ID NO: 4]
Whole cell current, pre-treatment with PNGase F [1]: 22.5 pA (n = 3)

C[C@@H]1NC(=O)CNC(=O)[C@H](CCC(=O)O)NC(=O)[C@@H]2CCCN2C(=O)[C@H]([C@@H](C)O)NC(=O)[C@H](CCC(=O)O)NC(=O)[C@H](CCCNC(=N)N)NC(=O)[C@H](CCC(N)=O)NC(=O)CNC(=O)CCCNC(=O)C[C@@H](C(=O)O)NC(=O)[C@H](Cc2ccc(O)cc2)NC(=O)[C@H](Cc2c[nH]c3ccccc23)NC(=O)[C@@H]2CCCN2C(=O)[C@H](CCCCN)NC(=O)[C@H](C)NC(=O)[C@H](CCC(=O)O)NC1=O [SEQ ID NO: 5]
Whole cell current, pre-treatment with PNGase F [1]: 22.4 pA (n = 3)

C[C@@H]1NC(=O)CNC(=O)[C@H](CCC(=O)O)NC(=O)[C@@H]2CCCN2C(=O)[C@H]([C@@H](C)O)NC(=O)[C@H](CCC(=O)O)NC(=O)[C@H](CCCNC(=N)N)NC(=O)[C@H](CCC(N)=O)NC(=O)CNC(=O)CCNC(=O)CC[C@@H](C(=O)O)NC(=O)[C@H](Cc2ccc(O)cc2)NC(=O)[C@H](Cc2c[nH]c3ccccc23)NC(=O)[C@@H]2CCCN2C(=O)[C@H](CCCCN)NC(=O)[C@H](C)NC(=O)[C@H](CCC(=O)O)NC1=O [SEQ ID NO: 6]
Whole cell current, pre-treatment with PNGase F [1]: 19.9 pA (n = 3)

Cyclo(CGQREAPAGAAAKPWYC) (disulfide 1-17) [SEQ ID NO: 7, reference compound]
activity on sodium ion current (in words) [2]: no activity
activity on sodium ion current (in words) ([2]; listed as SEQ ID NO:7): did not show activity
EC50 (nM) on cellular sodium ion current ([2]; A549, whole cell recording, Eh -100 mV): no activity
activity in deglycosylation experiments (in words) [1]: no activity
Whole cell current, pre-treatment with PNGase F [1]: no avtivity
effects on lung function [3]: did not provide improving effects
Whole cell current, no pre-treatment with PNGase F [4]: no activity
